US6143769A, “Phenylacetic acid benzylamides” (Karl Thomae GmbH, priority 1983, dated 2000)

Experiments:
[1] = clinical; conditions: human, plasma, po, 1 mg
[2] = system: glucose; assay: Study 3: whole blood glucose, single fasting test subject, crossover; format: in vivo, human
[3] = system: glucose; assay: Study 1: whole blood glucose, 2 mg AG-EE 388 ZW capsule, 12 healthy male volunteers; format: in vivo, human; conditions: 2 mg capsule
[4] = system: glucose; assay: Study 2: whole blood glucose, 2 mg AG-EE 388 ZW capsule or tablet, crossover; format: in vivo, human
Excerpt: Blood samples were taken at various times.

CCOc1cc(CC(=O)NC(CC(C)C)c2ccccc2N2CCCCC2)ccc1C(=O)O (racemic) [AG-EE 388 ZW, 2-ethoxy-4-[N-[1-(2-piperidino-phenyl)-3-methyl-1-butyl]aminocarbonylmethyl]-benzoic acid]
concentration at 0.75 h [1]: 40.2 ng/mL
concentration at 1 h [1]: 39.1 ng/mL
concentration at 1.5 h [1]: 30.8 ng/mL
concentration at 2 h [1]: 24 ng/mL
concentration at 3 h [1]: 14.8 ng/mL
concentration at 4 h [1]: 8.7 ng/mL
concentration at 5 h [1]: 5.6 ng/mL
concentration at 6 h [1]: 3.5 ng/mL
concentration at 9 h [1]: 1.8 ng/mL
Time of maximum blood sugar reduction ([2]; 2 mg): 2.0 h
Glucose, deviation against t = 0 ([2]; 2 mg capsule, 0 h): 0%
Glucose, deviation against t = 0 ([2]; 2 mg, 0.50 h): 0%
Glucose, deviation against t = 0 ([2]; 2 mg, 0.75 h): 0%
Glucose, deviation against t = 0 ([2]; 2 mg, 1.00 h): -5%
Glucose, deviation against t = 0 ([2]; 2 mg, 1.25 h): -12%
Glucose, deviation against t = 0 ([2]; 2 mg, 1.50 h): -18%
Glucose, deviation against t = 0 ([2]; 2 mg, 1.75 h): -23%
Glucose, deviation against t = 0 ([2]; 2 mg, 2.00 h): -29%
Glucose, deviation against t = 0 ([2]; 2 mg, 2.50 h): -27%
Glucose, deviation against t = 0 ([2]; 2 mg, 3.00 h): -21%
Glucose, deviation against t = 0 ([2]; 2 mg, 4.00 h): -17%
Glucose, deviation against t = 0 ([2]; 2 mg, 5.00 h): -17%
Glucose, deviation against t = 0 ([2]; 2 mg, 6.00 h): -16%
Maximum lowering of blood glucose ([2]; 4 mg): -38%
Onset of effect ([2]; 4 mg): about 1.0 hour
Time of maximum blood sugar reduction ([2]; 4 mg): 2.0 h
Glucose, deviation against t = 0 ([2]; 4 mg capsule, 0 h): 0%
Glucose, deviation against t = 0 ([2]; 4 mg, 0.50 h): -3%
Glucose, deviation against t = 0 ([2]; 4 mg, 0.75 h): -1%
Glucose, deviation against t = 0 ([2]; 4 mg, 1.00 h): -7%
Glucose, deviation against t = 0 ([2]; 4 mg, 1.25 h): -15%
Glucose, deviation against t = 0 ([2]; 4 mg, 1.50 h): -21%
Glucose, deviation against t = 0 ([2]; 4 mg, 1.75 h): -32%
Glucose, deviation against t = 0 ([2]; 4 mg, 2.00 h): -38%
Glucose, deviation against t = 0 ([2]; 4 mg, 2.50 h): -34%
Glucose, deviation against t = 0 ([2]; 4 mg, 3.00 h): -28%
Glucose, deviation against t = 0 ([2]; 4 mg, 3.50 h): -24%
Glucose, deviation against t = 0 ([2]; 4 mg, 4.00 h): -26%
Glucose, deviation against t = 0 ([2]; 4 mg, 5.00 h): -24%
Glucose, deviation against t = 0 ([2]; 4 mg, 6.00 h): -23%
Glucose, deviation against t = 0 ([2]; 4 mg, 7.00 h): -20%
Glucose, deviation against t = 0 ([2]; 4 mg, 8.00 h): -25%
Duration of activity [3]: about 5 hours
Glucose, deviation from placebo ([3]; 0 h): n.s.
Glucose, deviation from placebo ([3]; 0.50 h): n.s.
Glucose, deviation from placebo ([3]; 0.75 h): -9%
Glucose, deviation from placebo ([3]; 1.00 h): -17%
Glucose, deviation from placebo ([3]; 1.50 h): -27%
Glucose, deviation from placebo ([3]; 2.00 h): -24%
Glucose, deviation from placebo ([3]; 2.50 h): -19%
Glucose, deviation from placebo ([3]; 3.00 h): n.s.
Glucose, deviation from placebo ([3]; 4.00 h): -24%
Glucose, deviation from placebo ([3]; 5.00 h): -9%
Glucose, deviation from placebo ([3]; 5.50 h (lunch)): n.s.
Glucose, deviation from placebo ([3]; 6.00 h): n.s.
Glucose, deviation from placebo ([3]; 7.00 h (snack)): n.s.
Glucose, deviation from placebo ([3]; 8.00 h): -5%
Glucose, deviation from placebo ([3]; 9.00 h): n.s.
Glucose, deviation from placebo ([3]; 10.00 h (dinner)): n.s.
Glucose (mean) ([4]; 2 mg capsule, 0 h): 5.0 mmol/L
Glucose (mean) ([4]; 2 mg capsule, 0.20 h): 5.0 mmol/L
Glucose (mean) ([4]; 2 mg capsule, 0.33 h): 4.9 mmol/L
Glucose (mean) ([4]; 2 mg capsule, 0.50 h): 4.8 mmol/L
Glucose (mean) ([4]; 2 mg capsule, 0.75 h): 4.6 mmol/L
Glucose (mean) ([4]; 2 mg capsule, 1.00 h): 4.4 mmol/L
Glucose (mean) ([4]; 2 mg capsule, 1.50 h): 3.9 mmol/L
Glucose (mean) ([4]; 2 mg capsule, 2.00 h (breakfast)): 3.7 mmol/L
Glucose (mean) ([4]; 2 mg capsule, 3.00 h): 4.4 mmol/L
Glucose (mean) ([4]; 2 mg capsule, 4.00 h): 4.0 mmol/L
Glucose (mean) ([4]; 2 mg capsule, 5.00 h (lunch)): 4.2 mmol/L
Glucose (mean) ([4]; 2 mg capsule, 6.00 h): 4.8 mmol/L
Glucose (mean) ([4]; 2 mg capsule, 9.00 h): 5.0 mmol/L
Glucose (mean) ([4]; 2 mg capsule, 24.00 h): 4.9 mmol/L
Time at which glucose levels return to original level ([4]; 2 mg p.o.): 6 h
Glucose (mean) ([4]; 2 mg tablet, 0 h): 4.9 mmol/L
Glucose (mean) ([4]; 2 mg tablet, 0.20 h): 5.0 mmol/L
Glucose (mean) ([4]; 2 mg tablet, 0.33 h): 4.9 mmol/L
Glucose (mean) ([4]; 2 mg tablet, 0.50 h): 4.6 mmol/L
Glucose (mean) ([4]; 2 mg tablet, 0.75 h): 4.4 mmol/L
Glucose (mean) ([4]; 2 mg tablet, 1.00 h): 4.1 mmol/L
Glucose (mean) ([4]; 2 mg tablet, 1.50 h): 3.8 mmol/L
Glucose (mean) ([4]; 2 mg tablet, 2.00 h (breakfast)): 3.8 mmol/L
Glucose (mean) ([4]; 2 mg tablet, 3.00 h): 4.7 mmol/L
Glucose (mean) ([4]; 2 mg tablet, 4.00 h): 4.2 mmol/L
Glucose (mean) ([4]; 2 mg tablet, 5.00 h (lunch)): 4.2 mmol/L
Glucose (mean) ([4]; 2 mg tablet, 6.00 h): 5.2 mmol/L
Glucose (mean) ([4]; 2 mg tablet, 9.00 h): 5.0 mmol/L
Glucose (mean) ([4]; 2 mg tablet, 24.00 h): 4.8 mmol/L
